ChEMBL document CHEMBL4316605, “3-Acyltetramic acids as a novel class of inhibitors for human kallikreins 5 and 7” (Bioorg Med Chem Lett, 2019)

Experiments:
Kallikrein-7 [1] = molecular target: T1, Kallikrein-7 (Homo sapiens, UniProt P49862); test: Inhibition of human KLK7 assessed as residual enzyme activity at 10 uM
Target sequence in this assay (P49862 30-253 limits assumed): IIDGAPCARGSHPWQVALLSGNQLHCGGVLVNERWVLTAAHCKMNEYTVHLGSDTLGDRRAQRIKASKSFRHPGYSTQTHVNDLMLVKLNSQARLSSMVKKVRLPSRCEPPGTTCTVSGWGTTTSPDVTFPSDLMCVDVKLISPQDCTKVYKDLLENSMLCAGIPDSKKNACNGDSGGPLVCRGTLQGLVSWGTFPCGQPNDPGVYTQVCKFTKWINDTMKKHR

Kallikrein-5 = molecular target: T2, Kallikrein-5 (Homo sapiens, UniProt Q9Y337); test: Inhibition of human KLK5 assessed as reduction in enzyme activity
T2 sequence (Q9Y337 whole entry): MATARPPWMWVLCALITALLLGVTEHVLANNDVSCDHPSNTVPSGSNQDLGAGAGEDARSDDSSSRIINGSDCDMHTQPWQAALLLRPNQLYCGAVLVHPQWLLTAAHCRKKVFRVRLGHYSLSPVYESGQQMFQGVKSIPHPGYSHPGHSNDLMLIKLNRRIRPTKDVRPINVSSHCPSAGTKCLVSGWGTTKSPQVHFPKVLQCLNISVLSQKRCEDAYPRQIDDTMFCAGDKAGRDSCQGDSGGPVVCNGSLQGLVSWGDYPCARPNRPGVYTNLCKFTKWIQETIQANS

Kallikrein-7 [2] = molecular target: T1, Kallikrein-7; test: Inhibition of human KLK7 assessed as reduction in enzyme activity
Target sequence in this assay (P49862 whole entry): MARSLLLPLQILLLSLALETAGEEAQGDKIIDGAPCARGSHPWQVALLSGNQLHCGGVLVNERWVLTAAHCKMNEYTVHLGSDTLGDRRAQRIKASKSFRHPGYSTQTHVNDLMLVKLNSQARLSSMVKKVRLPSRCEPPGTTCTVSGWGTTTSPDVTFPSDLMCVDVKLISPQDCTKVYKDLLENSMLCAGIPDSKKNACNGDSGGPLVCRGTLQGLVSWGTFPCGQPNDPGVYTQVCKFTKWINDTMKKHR

[3] = molecular target: Kallikrein-5 (Homo sapiens) (UniProt Q9Y337); test: Inhibition of human KLK5 assessed as residual enzyme activity at 10 uM
[4] = molecular target: Chymotrypsin (Homo sapiens) (UniProt Q99895+P17538+P40313+Q6GPI1); test: Inhibition of Chymotrypsin (unknown origin) assessed as residual enzyme activity at 10 uM; type: protein assay
Trypsin [5] = molecular target: T3, Trypsin (Homo sapiens, UniProt P07477+P07478+P35030); test: Inhibition of trypsin (unknown origin) assessed as reduction in enzyme activity; type: protein assay
Trypsin [6] = molecular target: T3, Trypsin; test: Inhibition of trypsin (unknown origin) assessed as residual enzyme activity at 10 uM; type: protein assay

| SMILES | Activity (Kallikrein-7 [1]) | IC50 (Kallikrein-5) | IC50 (Kallikrein-7 [2]) | Activity [3] | Activity [4] | IC50 (Trypsin [5]) | Activity (Trypsin [6]) |
| --- | --- | --- | --- | --- | --- | --- | --- |
| CCCCCCCCCCCCCCCCC/C(O)=C1/C(=O)[C@H](Cc2ccccc2)N(C(=O)OC(C)(C)C)C1=O | 0% | 17000 nM | 2800 nM | 0% | – | – | – |
| CCCCCCCCCCCCCCC/C(O)=C1/C(=O)[C@H](Cc2ccccc2)N(C(=O)OC(C)(C)C)C1=O | 0% | 12000 nM | 2900 nM | 0% | – | – | – |
| CC/C(O)=C1/C(=O)[C@H](Cc2ccccc2)N(C(=O)OC(C)(C)C)C1=O | 50% | – | 11000 nM | 80% | – | – | – |
| CC(C)C/C(O)=C1/C(=O)[C@H](Cc2ccccc2)N(C(=O)OC(C)(C)C)C1=O | 70% | – | – | 80% | – | – | – |
| CCCCCCCC/C=C\CCCCCCC/C(O)=C1/C(=O)[C@H](Cc2ccccc2)N(C(=O)OC(C)(C)C)C1=O | 0% | 1800 nM | 2500 nM | 0% | 87% | 2300 nM | 5% |
| CCCC(C)/C(O)=C1/C(=O)[C@H](Cc2ccccc2)N(C(=O)OC(C)(C)C)C1=O (some centres not stated) | 0% | 8000 nM | 2500 nM | 0% | – | – | – |
| CCCCCCCCCCC/C(O)=C1/C(=O)[C@H](Cc2ccccc2)N(C(=O)OC(C)(C)C)C1=O | 0% | 3600 nM | 2300 nM | 0% | 98% | 2100 nM | 10% |
| CCCCCCCCCCCCC/C(O)=C1/C(=O)[C@H](Cc2ccccc2)N(C(=O)OC(C)(C)C)C1=O | 0% | 4900 nM | 1700 nM | 0% | 90% | 2400 nM | 20% |
| CCCCC/C=C\C/C=C\CCCCCCC/C(O)=C1/C(=O)[C@H](Cc2ccccc2)N(C(=O)OC(C)(C)C)C1=O | 50% | 14000 nM | 14000 nM | 50% | – | – | – |
